Source: patent US20230024302A1, “2,3,5-TRISUBSTITUTED PYRAZOLO[1,5-A]PYRIMIDINE COMPOUNDS” (Arcus Biosciences, Inc., priority 2019, published 2023)

What was measured:
PI3Kγ = biological target: T1, PI3Kγ (Homo sapiens, UniProt P48736); assay: PI3Kγ cellular assay in THP-1 cells (AKT pS473 AlphaLISA); assay type: cell-based; conditions: Table 2, rhMCP-1 stimulated AKT pS473, read-out: cellular potency (PI3Kγ IC50)
T1 construct: host or cells: THP-1
How it was run: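 Serum-starved THP-1 cells (1.8×10^5/well, serum-free DMEM) treated with compounds from 4 nM to 30 μM in 2% DMSO, then stimulated and lysed.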

PI3Kγ (p120γ) = biological target: T2, PI3Kγ (p120γ) (Homo sapiens, UniProt P48736); assay: Inhibition of PI3K kinase activity (ADP Glo), PI3Kγ; conditions: Table 2, p120γ, read-out: biochemical potency (PI3Kγ IC50)
T2 construct: purchased Promega V1761
T2 sequence (P48736 whole entry): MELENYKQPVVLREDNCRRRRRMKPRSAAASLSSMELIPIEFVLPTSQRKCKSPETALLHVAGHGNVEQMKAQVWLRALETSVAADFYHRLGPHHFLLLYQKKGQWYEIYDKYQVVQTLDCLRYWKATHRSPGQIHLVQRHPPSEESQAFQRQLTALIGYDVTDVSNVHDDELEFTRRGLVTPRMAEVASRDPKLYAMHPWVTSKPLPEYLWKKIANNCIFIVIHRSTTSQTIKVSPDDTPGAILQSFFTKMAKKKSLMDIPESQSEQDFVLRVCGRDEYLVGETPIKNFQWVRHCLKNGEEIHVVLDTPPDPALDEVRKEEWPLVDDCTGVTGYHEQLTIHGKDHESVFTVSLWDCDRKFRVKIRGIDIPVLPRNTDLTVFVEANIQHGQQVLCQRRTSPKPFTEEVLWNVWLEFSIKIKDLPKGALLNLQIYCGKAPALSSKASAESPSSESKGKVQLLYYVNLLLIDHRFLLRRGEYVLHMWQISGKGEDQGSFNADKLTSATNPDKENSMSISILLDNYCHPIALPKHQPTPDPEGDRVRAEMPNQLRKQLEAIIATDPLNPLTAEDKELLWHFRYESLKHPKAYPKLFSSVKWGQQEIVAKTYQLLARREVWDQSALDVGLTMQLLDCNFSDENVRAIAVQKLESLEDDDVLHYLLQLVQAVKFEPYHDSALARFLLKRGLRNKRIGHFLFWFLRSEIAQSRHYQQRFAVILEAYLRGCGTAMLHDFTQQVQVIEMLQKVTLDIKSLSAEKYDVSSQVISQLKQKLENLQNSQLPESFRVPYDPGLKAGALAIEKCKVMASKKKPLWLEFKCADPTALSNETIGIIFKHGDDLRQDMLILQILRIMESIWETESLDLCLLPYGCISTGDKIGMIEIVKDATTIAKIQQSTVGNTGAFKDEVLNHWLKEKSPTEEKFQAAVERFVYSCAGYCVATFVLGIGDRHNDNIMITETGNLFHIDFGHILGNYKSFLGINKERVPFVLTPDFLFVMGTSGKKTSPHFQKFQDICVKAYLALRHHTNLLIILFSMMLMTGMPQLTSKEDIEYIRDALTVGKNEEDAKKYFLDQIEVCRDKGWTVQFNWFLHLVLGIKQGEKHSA
How it was run: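 Recombinant p120γ (8 nM, 2× stock) was preincubated with compound for 1 h at rt in HEPES pH 7.4, NaCl, MgCl2 and 0.05% BSA. Reaction was started with PIP2 (0.1 mg/ml, 2×) and ATP (50 μM, 2×) and ran 60 min at rt. ADP formed was read by ADP-Glo luminescence, and IC50 came from a 4-parameter fit.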

T1 sequence (P48736 whole entry): as above

Row | SMILES | IC50 (PI3Kγ) | IC50 (PI3Kγ (p120γ))
1 | Cc1cc(-c2ccn3nc(N)c(C(=O)NCCC#N)c3n2)cc2c1C(=O)N([C@@H](C)C1CC1)C2 [Example 260] | 100 to 1000 nM | < 100 nM
2 | Cc1cc(-c2ccn3nc(N)c(C(=O)N[C@H]4CCOc5ccccc54)c3n2)cc2c1C(=O)N([C@@H](C)C1CC1)C2 [Example 261] | 100 to 1000 nM | < 100 nM
3 | Cc1cc(-c2ccn3nc(N)c(C(=O)NC4(C(F)(F)F)CC4)c3n2)cc2c1C(=O)N([C@@H](C)C1CC1)C2 [Example 262] | 100 to 1000 nM | < 100 nM
4 | Cc1cc(-c2ccn3nc(N)c(C(=O)N[C@@H]4C[C@@H]4F)c3n2)cc2c1C(=O)N([C@@H](C)C1CC1)C2 [Example 263] | 100 to 1000 nM | < 100 nM
5 | Cc1cc(-c2ccn3nc(N)c(C(=O)N[C@H]4CCC[C@H]4O)c3n2)cc2c1C(=O)N([C@@H](C)C1CC1)C2 [Example 264] | 100 to 1000 nM | < 100 nM
6 | Cc1cc(-c2ccn3nc(N)c(C(=O)N[C@H]4Cc5ccccc5[C@@H]4O)c3n2)cc2c1C(=O)N([C@@H](C)C1CC1)C2 [Example 265] | > 1000 nM | < 100 nM
7 | Cc1cc(-c2ccn3nc(N)c(C(=O)NC4CNC4)c3n2)cc2c1C(=O)N([C@@H](C)C1CC1)C2 [Example 266] | > 1000 nM | < 100 nM
8 | Cc1cc(-c2ccn3nc(N)c(C(=O)N[C@@H](CO)CC(C)C)c3n2)cc2c1C(=O)N([C@@H](C)C1CC1)C2 [Example 267] | 100 to 1000 nM | < 100 nM
9 | Cc1cc(-c2ccn3nc(N)c(C(=O)NC4(C#N)CC4)c3n2)cc2c1C(=O)N([C@@H](C)C1CC1)C2 [Example 268] | 100 to 1000 nM | < 100 nM
10 | Cc1cc(-c2ccn3nc(N)c(C(=O)NC[C@H]4CCCO4)c3n2)cc2c1C(=O)N([C@@H](C)C1CC1)C2 [Example 269] | 100 to 1000 nM | < 100 nM
11 | Cc1cc(-c2ccn3nc(N)c(C(=O)N4CC(C(C)(C)O)C4)c3n2)cc2c1C(=O)N(C(C)C1CC1)C2 (stereo not shown) [Example 270] | 100 to 1000 nM | < 100 nM
12 | Cc1cc(-c2ccn3nc(N)c(C(=O)NC[C@@H]4CCC(=O)N4)c3n2)cc2c1C(=O)N([C@@H](C)C1CC1)C2 [Example 271] | 100 to 1000 nM | < 100 nM
13 | Cc1cc(-c2ccn3nc(N)c(C(=O)N[C@H]4c5ccccc5C[C@@H]4O)c3n2)cc2c1C(=O)N([C@@H](C)C1CC1)C2 [Example 272] | > 1000 nM | < 100 nM
14 | Cc1cc(-c2ccn3nc(N)c(C(=O)N[C@H]4CC[C@@H](N)CC4)c3n2)cc2c1C(=O)N([C@@H](C)C1CC1)C2 [Example 273] | 100 to 1000 nM | < 100 nM
15 | Cc1cc(-c2ccn3nc(N)c(C(=O)N4CCC4CO)c3n2)cc2c1C(=O)N(C(C)C1CC1)C2 (stereo not shown) [Example 274] | 100 to 1000 nM | < 100 nM
16 | Cc1cc(-c2ccn3nc(N)c(C(=O)N[C@H]4CCCC[C@H]4O)c3n2)cc2c1C(=O)N([C@@H](C)C1CC1)C2 [Example 275] | 100 to 1000 nM | < 100 nM
17 | Cc1cc(-c2ccn3nc(N)c(C(=O)NC[C@H]4CNC(=O)C4)c3n2)cc2c1C(=O)N([C@@H](C)C1CC1)C2 [Example 276] | 100 to 1000 nM | < 100 nM
18 | Cc1cc(-c2ccn3nc(N)c(C(=O)NC4CC45CC5)c3n2)cc2c1C(=O)N([C@@H](C)C1CC1)C2 (stereo partly shown) [Example 277] | 100 to 1000 nM | < 100 nM
19 | Cc1cc(-c2ccn3nc(N)c(C(=O)N[C@H](C)C4CC4)c3n2)cc2c1C(=O)N([C@@H](C)C1CC1)C2 [Example 278] | > 1000 nM | < 100 nM

Row | SMILES | IC50 (PI3Kγ) | IC50 (PI3Kγ (p120γ))
20 | Cc1cc(-c2ccn3nc(N)c(C(=O)NCC(=O)Nc4ccccc4)c3n2)cc2c1C(=O)N([C@@H](C)C1CC1)C2 [Example 279] | > 1000 nM | < 100 nM
21 | Cc1cc(-c2ccn3nc(N)c(C(=O)N4CCOCC4)c3n2)cc2c1C(=O)N(C(C)C1CC1)C2 (stereo not shown) [Example 280] | > 1000 nM | < 100 nM
22 | Cc1cc(-c2ccn3nc(N)c(C(=O)NC4(c5ccccc5)CC4)c3n2)cc2c1C(=O)N([C@@H](C)C1CC1)C2 [Example 281] | > 1000 nM | < 100 nM
23 | Cc1cc(-c2ccn3nc(N)c(C(=O)N[C@@H]4CCNC4=O)c3n2)cc2c1C(=O)N([C@@H](C)C1CC1)C2 [Example 283] | 100 to 1000 nM | < 100 nM
24 | Cc1cc(-c2ccn3nc(N)c(C(=O)N[C@H]4c5ccccc5C[C@H]4O)c3n2)cc2c1C(=O)N([C@@H](C)C1CC1)C2 [Example 284] | > 1000 nM | < 100 nM
25 | Cc1cc(-c2ccn3nc(N)c(C(=O)N[C@@H]4CCOc5ccccc54)c3n2)cc2c1C(=O)N([C@@H](C)C1CC1)C2 [Example 285] | > 1000 nM | < 100 nM
26 | Cc1cc(-c2ccn3nc(N)c(C(=O)N[C@H](C(N)=O)c4ccccc4)c3n2)cc2c1C(=O)N([C@@H](C)C1CC1)C2 [Example 286] | > 1000 nM | 100 to 1000 nM
27 | Cc1cc(-c2ccn3nc(N)c(C(=O)NC(C)C4COC4)c3n2)cc2c1C(=O)N([C@@H](C)C1CC1)C2 (stereo partly shown) [Example 287] | 100 to 1000 nM | 100 to 1000 nM
28 | Cc1cc(-c2ccn3nc(N)c(C(=O)N4CCCC4CO)c3n2)cc2c1C(=O)N(C(C)C1CC1)C2 (stereo not shown) [Example 288] | > 1000 nM | 100 to 1000 nM
29 | Cc1cc(-c2ccn3nc(N)c(C(=O)N4CCCC4CO)c3n2)cc2c1C(=O)N(C(C)C1CC1)C2 (stereo not shown) [Example 289] | > 1000 nM | 100 to 1000 nM
30 | Cc1cc(-c2ccn3nc(N)c(C(=O)N[C@@H](C)C4CCNCC4)c3n2)cc2c1C(=O)N([C@@H](C)C1CC1)C2 [Example 290] | > 1000 nM | 100 to 1000 nM
31 | Cc1cc(-c2ccn3nc(N)c(C(=O)N4CCN(C)CC4)c3n2)cc2c1C(=O)N(C(C)C1CC1)C2 (stereo not shown) [Example 291] | > 1000 nM | > 1000 nM
32 | Cc1cc(-c2ccn3nc(N)c(C(=O)Nc4cn(C)nc4C)c3n2)cc2c1C(=O)N([C@@H](C)C1CC1)C2 [Example 292] | 100 to 1000 nM | < 100 nM
33 | Cc1cc(NC(=O)c2c(N)nn3ccc(-c4cc(C)c5c(c4)CN([C@@H](C)C4CC4)C5=O)nc23)ccc1C(=O)O [Example 293] | 100 to 1000 nM | < 100 nM
34 | Cc1cc(-c2ccn3nc(N)c(C(=O)Nc4cnn(C5CC5)c4)c3n2)cc2c1C(=O)N([C@@H](C)C1CC1)C2 [Example 294] | 100 to 1000 nM | < 100 nM
35 | CCn1cc(NC(=O)c2c(N)nn3ccc(-c4cc(C)c5c(c4)CN([C@@H](C)C4CC4)C5=O)nc23)cn1 [Example 295] | 100 to 1000 nM | < 100 nM
36 | Cc1cc(-c2ccn3nc(N)c(C(=O)Nc4cnn(C)c4F)c3n2)cc2c1C(=O)N([C@@H](C)C1CC1)C2 [Example 296] | 100 to 1000 nM | < 100 nM
37 | Cc1cc(NC(=O)c2c(N)nn3ccc(-c4cc(C)c5c(c4)CN([C@@H](C)C4CC4)C5=O)nc23)ccn1 [Example 297] | 100 to 1000 nM | < 100 nM

The next lines start with the values.

Row | IC50 (PI3Kγ) | IC50 (PI3Kγ (p120γ)) | SMILES
38 | 100 to 1000 nM | < 100 nM | Cc1cc(-c2ccn3nc(N)c(C(=O)N[C@H]4CCC[C@H](O)C4)c3n2)cc2c1C(=O)N([C@@H](C)C1CC1)C2 [Example 244]
39 | 100 to 1000 nM | < 100 nM | Cc1cc(-c2ccn3nc(N)c(C(=O)N[C@@H](C(N)=O)c4ccccc4)c3n2)cc2c1C(=O)N([C@@H](C)C1CC1)C2 [Example 245]
40 | 100 to 1000 nM | < 100 nM | Cc1cc(-c2ccn3nc(N)c(C(=O)NC4(CO)CC4)c3n2)cc2c1C(=O)N([C@@H](C)C1CC1)C2 [Example 246]
41 | 100 to 1000 nM | < 100 nM | Cc1cc(-c2ccn3nc(N)c(C(=O)NC4(C(N)=O)CC4)c3n2)cc2c1C(=O)N([C@@H](C)C1CC1)C2 [Example 247]
42 | 100 to 1000 nM | < 100 nM | Cc1cc(-c2ccn3nc(N)c(C(=O)NC(C)(C)c4ccncc4)c3n2)cc2c1C(=O)N([C@@H](C)C1CC1)C2 [Example 248]
43 | 100 to 1000 nM | < 100 nM | Cc1cc(-c2ccn3nc(N)c(C(=O)NC4CC4(C)C)c3n2)cc2c1C(=O)N([C@@H](C)C1CC1)C2 (stereo partly shown) [Example 249]
44 | 100 to 1000 nM | < 100 nM | Cc1cc(-c2ccn3nc(N)c(C(=O)NCC4(CO)CC4)c3n2)cc2c1C(=O)N([C@@H](C)C1CC1)C2 [Example 250]
45 | 100 to 1000 nM | < 100 nM | Cc1cc(-c2ccn3nc(N)c(C(=O)N4CC(O)C4)c3n2)cc2c1C(=O)N(C(C)C1CC1)C2 (stereo not shown) [Example 251]
46 | 100 to 1000 nM | < 100 nM | Cc1cc(-c2ccn3nc(N)c(C(=O)NC(C)C)c3n2)cc2c1C(=O)N([C@@H](C)C1CC1)C2 [Example 252]
47 | 100 to 1000 nM | < 100 nM | Cc1cc(-c2ccn3nc(N)c(C(=O)NC4(C(C)O)CC4)c3n2)cc2c1C(=O)N([C@@H](C)C1CC1)C2 (stereo partly shown) [Example 253]
48 | 100 to 1000 nM | < 100 nM | Cc1cc(-c2ccn3nc(N)c(C(=O)N[C@H]4CCCC[C@@H]4O)c3n2)cc2c1C(=O)N([C@@H](C)C1CC1)C2 [Example 254]
49 | 100 to 1000 nM | < 100 nM | Cc1cc(-c2ccn3nc(N)c(C(=O)NC4(C#N)CCC4)c3n2)cc2c1C(=O)N([C@@H](C)C1CC1)C2 [Example 255]
50 | 100 to 1000 nM | < 100 nM | Cc1cc(-c2ccn3nc(N)c(C(=O)NCC4(C#N)CC4)c3n2)cc2c1C(=O)N([C@@H](C)C1CC1)C2 [Example 256]
51 | 100 to 1000 nM | < 100 nM | Cc1cc(-c2ccn3nc(N)c(C(=O)NC[C@H]4CCOC4)c3n2)cc2c1C(=O)N([C@@H](C)C1CC1)C2 [Example 257]
52 | 100 to 1000 nM | < 100 nM | Cc1cc(-c2ccn3nc(N)c(C(=O)NC4CC(F)(F)C4)c3n2)cc2c1C(=O)N([C@@H](C)C1CC1)C2 [Example 258]
53 | 100 to 1000 nM | < 100 nM | Cc1cc(-c2ccn3nc(N)c(C(=O)NC4COCc5ccccc54)c3n2)cc2c1C(=O)N([C@@H](C)C1CC1)C2 (stereo partly shown) [Example 259]
